Measurements as given in patent publication US20200315933A1, “USE OF CANNABIDIOL OR CANNABIS EXTRACT IN PREPARATION OF SKIN WHITENING PRODUCTS” (HANYI BIO-TECHNOLOGY COMPANY LTD., priority 2017, published 2020).

Experiments:
Format in all cases: cell-based
tyrosinase = target: T1, tyrosinase (Mus musculus, UniProt P11344); test: Determination of tyrosinase inhibition rate in B16 cells; details: action of 72 hours, inhibition rate increased with amount
T1 construct: endogenous in cells; host or cells: B16 cells
T1 sequence (P11344 19-533): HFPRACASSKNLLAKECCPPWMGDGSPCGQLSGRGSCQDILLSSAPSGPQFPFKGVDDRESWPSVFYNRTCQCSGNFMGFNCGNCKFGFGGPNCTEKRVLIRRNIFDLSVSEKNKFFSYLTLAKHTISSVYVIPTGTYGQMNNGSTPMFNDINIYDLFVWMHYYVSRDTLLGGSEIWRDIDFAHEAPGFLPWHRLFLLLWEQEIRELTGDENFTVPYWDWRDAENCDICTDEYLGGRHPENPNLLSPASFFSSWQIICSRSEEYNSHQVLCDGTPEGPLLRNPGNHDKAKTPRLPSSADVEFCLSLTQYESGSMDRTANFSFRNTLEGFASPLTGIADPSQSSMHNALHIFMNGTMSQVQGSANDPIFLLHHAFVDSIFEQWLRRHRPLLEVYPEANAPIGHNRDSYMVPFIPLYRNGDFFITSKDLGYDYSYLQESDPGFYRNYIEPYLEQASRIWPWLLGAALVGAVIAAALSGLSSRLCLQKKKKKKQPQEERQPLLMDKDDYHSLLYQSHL
Method: B16 cells at a logarithmic phase were collected, trypsin was adopted for digestion, the digestion was terminated with a complete medium (DMEM high sugar medium+10% fetal calf serum), counting was performed; the cell suspension was adjusted to 10×10^4 cells/mL, and inoculated into a 96-well culture plate, each well was added with 100 μl of cell suspension, the marginal wells were filled with sterile PBS, and cultivated in an incubator at 37° C. and with 5% CO2 overnight, the medium (DMEM high sugar medium+10% fetal calf serum) was drawn out, 100 μl of the experiment sample was added into each well, and a control group (namely, the well without the sample but with only medium) was set. After action of 72 hours, 50 μl of 1% TritionX-100 solution was added for cell lysis, quickly put into an ultra-low temperature freezer at −80° C. and cryopreserved for one hour, subsequently the cryopreserved solution was thawed at room temperature, such that tyrosinase within the cells were released outside the cells, pre-warming was performed to 37° C., then 50 μl of 1% levodopa solution was added to produce a mixture, the mixture was reacted at 37° C. for 2 hours, the absorbance value in each well was determined at the wavelength of 490 nm, for every sample concentration, more than 3 subwells were set, and averaged. […]

[1] = system: human immortalized epidermal cells; test: Cytotoxicity test (MTT) of human immortalized epidermal cells; details: samples containing cannabis seed oil
Method: Human immortalized epidermal cells at a logarithmic phase were collected, the concentration of the cell suspension was adjusted, the cell suspension was added to a 96-well plate at 100 μl per well, incubation was performed at 37° C. and with 5% CO2 to reach a cell density of 5000 cells/well. The solution was changed and the experimental samples at different concentration gradients were added (as the following Table 4), a culture solution containing no experiment sample was used as the control. Incubation was performed with 5% CO2 and at 37° C. for 24 hours, 20 μl of MTT solution (5 mg/ml, i.e. 0.5% MTT) was added into each well, the cultivation was continued for four hours. The drug reacted with MTT sufficiently, firstly centrifugation was performed, then the culture solution was abandoned, and rinsing was performed with PBS carefully for 2-3 times, then a culture solution containing MTT was added. The cultivation was terminated, the culture solution in the well were drawn off carefully. […] The absorbance values of each well were measured in an enzyme linked immunosorbent detector at OD value of 490 nm.
Cell survival rate=(determined well OD value−blank control OD value)/(OD value in the cell comparative group−OD value in the blank control)×100%.

B16 cells = test: Determination of melanin content in B16 cells; details: positive control 33 mM
Method: B16 cells in good state at a logarithmic phase were collected, trypsin was adopted for digestion, the digestion was terminated with a complete medium, and counting was performed; the prepared cell suspension was adjusted to 5×10^4 cells/ml and added into a 6-well culture plate, 2 ml of cell suspension was added into each well, cultivation was performed in an incubator at 37° C. and with 5% CO2 overnight; the medium was drawn out, 2 ml of cannabis extracts with different concentrations were added into each well, after action of 48 hours, the medium was drawn out and abandoned, trypsin was adopted for digestion, and the product was collected into a centrifugal tube, centrifugation was performed to obtain a cell precipitate, the cell precipitate was washed with PBS for one time, a 1M NaOH (containing 10% DMSO) solution was added for cell lysis, and the lysed cells were put in a 80° C. water bath kettle for water bath for 30 minutes; uniform shaking and mixing were performed, and the processed cells were drawn into to a 96-well plate; and the absorbance value was determined at the wavelength of 245 nm.
Relative melanin content=(mean absorbance value in each well under every concentration−mean absorbance value in the control group)[…].

C=C(C)[C@@H]1CCC(C)=C[C@H]1c1c(O)cc(CCCCC)cc1O [CBD, Cannabidiol]
inhibitory effect against tyrosinase (inhibition rate) (tyrosinase): effective inhibitory effect against tyrosinase | cell proliferation (eliminating the influence of the cannabis seed oil) [1]: promote cell proliferation to a certain extent

OC[C@H]1O[C@@H](Oc2ccc(O)cc2)[C@H](O)[C@@H](O)[C@@H]1O [arbutin, Arbutin]
melanin content within the B16 cells (B16 cells): 79.24%
